{"source": "paper PMC7432509", "about": "“Investigating the Product Profiles and Structural Relationships of New Levansucrases with Conventional and Non-Conventional Substrates” (International Journal of Molecular Sciences, 2020)", "assay_type_in_all_cases": "biochemical", "key": {"[1]": {"molecular_target": "T1, LS from Vibrio natriegens (Vibrio natriegens, UniProt A0AAN0Y6N0)", "T1 construct": "gene BA890_19745; pET22b(+), E. coli BL21(DE3), HisTrap purified", "T1 sequence (A0AAN0Y6N0 28-523)": "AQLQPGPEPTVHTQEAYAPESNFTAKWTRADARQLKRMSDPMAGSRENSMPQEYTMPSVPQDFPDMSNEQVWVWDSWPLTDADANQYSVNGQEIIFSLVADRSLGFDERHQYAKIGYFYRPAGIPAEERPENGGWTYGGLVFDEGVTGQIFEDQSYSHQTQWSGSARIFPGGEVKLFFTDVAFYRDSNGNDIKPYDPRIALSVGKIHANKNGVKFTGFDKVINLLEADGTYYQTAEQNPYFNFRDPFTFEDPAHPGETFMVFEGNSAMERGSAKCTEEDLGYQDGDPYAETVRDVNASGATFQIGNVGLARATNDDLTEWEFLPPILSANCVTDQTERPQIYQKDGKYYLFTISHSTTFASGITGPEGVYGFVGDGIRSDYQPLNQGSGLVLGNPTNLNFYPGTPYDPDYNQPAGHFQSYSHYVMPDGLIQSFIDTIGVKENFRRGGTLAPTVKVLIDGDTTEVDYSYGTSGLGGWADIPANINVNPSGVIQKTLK", "assay": "HPAEC-PAD, bioconversion of raffinose", "settings": "raffinose as sole fructosyl donor and acceptor (0.8 M in methods, 0.9 M in figure legend)"}, "[2]": {"molecular_target": "T2, LS from Beijerinckia indica subsp. indica (Beijerinckia indica, UniProt B2IF78)", "T2 construct": "gene Bind_2021; pET22b(+), E. coli BL21(DE3), HisTrap purified", "T2 sequence (B2IF78 29-534)": "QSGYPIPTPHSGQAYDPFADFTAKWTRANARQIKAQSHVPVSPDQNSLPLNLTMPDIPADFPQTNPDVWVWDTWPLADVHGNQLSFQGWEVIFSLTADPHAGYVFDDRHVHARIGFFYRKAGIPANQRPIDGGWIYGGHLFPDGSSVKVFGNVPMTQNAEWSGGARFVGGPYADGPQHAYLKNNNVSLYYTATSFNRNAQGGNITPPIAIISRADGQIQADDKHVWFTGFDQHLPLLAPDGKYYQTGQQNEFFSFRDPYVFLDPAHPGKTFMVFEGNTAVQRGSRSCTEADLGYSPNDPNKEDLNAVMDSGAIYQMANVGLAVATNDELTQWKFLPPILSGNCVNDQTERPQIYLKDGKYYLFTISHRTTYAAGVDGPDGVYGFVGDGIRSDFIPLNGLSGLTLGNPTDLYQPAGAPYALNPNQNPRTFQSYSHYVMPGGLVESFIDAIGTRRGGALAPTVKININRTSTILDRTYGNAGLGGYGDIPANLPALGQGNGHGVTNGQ", "assay": "HPAEC-PAD, bioconversion of raffinose", "settings": "raffinose as sole fructosyl donor and acceptor (0.8 M in methods, 0.9 M in figure legend)"}, "[3]": {"molecular_target": "T3, LS from Novosphingobium aromaticivorans (Novosphingobium aromaticivorans, UniProt Q2G754)", "T3 construct": "gene Saro_1879; pET22b(+), E. coli BL21(DE3), HisTrap purified", "T3 sequence (Q2G754 1-377)": "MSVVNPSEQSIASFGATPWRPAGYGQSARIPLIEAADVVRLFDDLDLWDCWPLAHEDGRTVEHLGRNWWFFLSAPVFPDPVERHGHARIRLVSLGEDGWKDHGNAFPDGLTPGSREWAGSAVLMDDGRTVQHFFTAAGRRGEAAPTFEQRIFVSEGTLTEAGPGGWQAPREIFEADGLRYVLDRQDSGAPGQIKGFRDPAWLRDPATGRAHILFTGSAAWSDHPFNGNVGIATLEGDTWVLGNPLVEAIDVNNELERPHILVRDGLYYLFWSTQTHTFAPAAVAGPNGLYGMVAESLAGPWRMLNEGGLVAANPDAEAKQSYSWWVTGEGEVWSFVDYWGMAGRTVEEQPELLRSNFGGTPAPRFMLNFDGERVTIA", "assay": "HPAEC-PAD, bioconversion of raffinose", "settings": "raffinose as sole fructosyl donor and acceptor (0.8 M in methods, 0.9 M in figure legend)"}, "[4]": {"molecular_target": "T4, LS from Paraburkholderia graminis (Paraburkholderia graminis, UniProt B1G3X6)", "T4 construct": "gene BgramDRAFT_4066; pET22b(+), E. coli BL21(DE3), HisTrap purified", "T4 sequence (B1G3X6 36-529)": "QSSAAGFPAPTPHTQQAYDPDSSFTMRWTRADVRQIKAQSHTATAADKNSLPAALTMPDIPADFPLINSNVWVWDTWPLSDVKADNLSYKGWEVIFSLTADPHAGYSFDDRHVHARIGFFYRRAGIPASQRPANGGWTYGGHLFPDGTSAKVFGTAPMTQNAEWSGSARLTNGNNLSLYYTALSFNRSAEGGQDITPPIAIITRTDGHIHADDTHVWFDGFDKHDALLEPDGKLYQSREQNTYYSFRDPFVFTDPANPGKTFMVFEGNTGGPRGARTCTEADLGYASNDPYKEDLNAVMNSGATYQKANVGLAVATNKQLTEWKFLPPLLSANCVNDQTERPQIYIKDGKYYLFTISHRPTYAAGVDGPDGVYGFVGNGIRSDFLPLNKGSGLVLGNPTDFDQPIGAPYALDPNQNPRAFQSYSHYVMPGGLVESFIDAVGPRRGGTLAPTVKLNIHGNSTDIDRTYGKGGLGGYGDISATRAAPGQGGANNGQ", "assay": "HPAEC-PAD, bioconversion of raffinose", "settings": "raffinose as sole fructosyl donor and acceptor (0.8 M in methods, 0.9 M in figure legend)"}, "[5]": {"molecular_target": "T5, LS from Gluconobacter oxydans (Gluconobacter oxydans, UniProt Q5FSK0)", "T5 construct": "gene GOX0873; pET22b(+), E. coli BL21(DE3), HisTrap purified", "T5 sequence (Q5FSK0 1-436)": "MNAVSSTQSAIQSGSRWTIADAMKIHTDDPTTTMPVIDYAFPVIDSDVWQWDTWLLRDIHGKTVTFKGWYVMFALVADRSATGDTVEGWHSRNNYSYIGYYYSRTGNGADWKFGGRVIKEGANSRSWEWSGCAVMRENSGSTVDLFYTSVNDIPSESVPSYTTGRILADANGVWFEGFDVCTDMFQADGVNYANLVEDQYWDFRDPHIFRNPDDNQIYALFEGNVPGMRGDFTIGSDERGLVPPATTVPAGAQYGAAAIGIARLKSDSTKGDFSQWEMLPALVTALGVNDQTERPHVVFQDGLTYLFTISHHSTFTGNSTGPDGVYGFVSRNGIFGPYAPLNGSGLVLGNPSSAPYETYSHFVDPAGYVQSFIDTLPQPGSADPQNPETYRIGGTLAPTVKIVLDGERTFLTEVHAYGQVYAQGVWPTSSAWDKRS", "assay": "HPAEC-PAD, bioconversion of raffinose", "settings": "raffinose as sole fructosyl donor and acceptor (0.8 M in methods, 0.9 M in figure legend)"}, "[6]": {"molecular_target": "T4, LS from Paraburkholderia graminis", "assay": "HPAEC-PAD time course of sucrose conversion", "settings": "0.8 M sucrose, 30 °C, 5-7 U/mL; fructosyl donor and acceptor"}, "[7]": {"molecular_target": "T5, LS from Gluconobacter oxydans", "assay": "HPAEC-PAD time course of sucrose conversion", "settings": "0.8 M sucrose, 30 °C, 5-7 U/mL; fructosyl donor and acceptor"}}}
{"smiles": "OC[C@H]1O[C@H](OC[C@H]2O[C@H](O[C@]3(CO)O[C@H](CO)[C@@H](O)[C@@H]3O)[C@H](O)[C@@H](O)[C@@H]2O)[C@H](O)[C@@H](O)[C@H]1O", "note": "[raffinose]", "values": [{"measurement": "HPAEC-PAD, bioconversion of raffinose", "setting": "[1]", "value": "LS from V. natriegens, N. aromaticivorans, and B. indica subsp. indica preferred raffinose as the substrate"}, {"measurement": "HPAEC-PAD, bioconversion of raffinose", "setting": "[2]", "value": "LS from V. natriegens, N. aromaticivorans, and B. indica subsp. indica preferred raffinose as the substrate"}, {"measurement": "HPAEC-PAD, bioconversion of raffinose", "setting": "[3]", "value": "LS from V. natriegens, N. aromaticivorans, and B. indica subsp. indica preferred raffinose as the substrate"}, {"measurement": "HPAEC-PAD, bioconversion of raffinose", "setting": "[4]", "value": "LS from P. graminis catalyzed the synthesis of multiple oligosaccharides using raffinose"}, {"measurement": "HPAEC-PAD, bioconversion of raffinose", "setting": "[5]", "value": "All LSs were able to produce a few different trisaccharides"}]}
{"smiles": "OC[C@H]1O[C@@](CO)(O[C@H]2O[C@H](CO)[C@@H](O)[C@H](O)[C@H]2O)[C@@H](O)[C@@H]1O", "note": "[sucrose]", "values": [{"measurement": "HPAEC-PAD time course of sucrose conversion", "setting": "[6]", "value": "The LS from P. graminis used the highest amount of sucrose amongst all the enzymes tested"}, {"measurement": "HPAEC-PAD time course of sucrose conversion", "setting": "[7]", "value": "The LSs from G. oxydans and P. graminis almost depleted the sucrose"}]}
